Consider twelve molecules from patent publication US20110046210A1, “SUBSTITUTED THIOPENECARBOXAMIDES AS IKK-BETA SERINE-, THREONINE-PROTEIN KINASE INHIBITORS” (CHROMA THERAPEUTICS LTD., priority 2008, published 2011).

Like-named read-outs stand apart in the source and are kept apart here.

The target of one assay is T1, IKBKB (IKK-β) (Homo sapiens, UniProt O14920).
T1 construct: purchased Invitrogen (Paisley, UK)
T1 sequence (O14920 1-756): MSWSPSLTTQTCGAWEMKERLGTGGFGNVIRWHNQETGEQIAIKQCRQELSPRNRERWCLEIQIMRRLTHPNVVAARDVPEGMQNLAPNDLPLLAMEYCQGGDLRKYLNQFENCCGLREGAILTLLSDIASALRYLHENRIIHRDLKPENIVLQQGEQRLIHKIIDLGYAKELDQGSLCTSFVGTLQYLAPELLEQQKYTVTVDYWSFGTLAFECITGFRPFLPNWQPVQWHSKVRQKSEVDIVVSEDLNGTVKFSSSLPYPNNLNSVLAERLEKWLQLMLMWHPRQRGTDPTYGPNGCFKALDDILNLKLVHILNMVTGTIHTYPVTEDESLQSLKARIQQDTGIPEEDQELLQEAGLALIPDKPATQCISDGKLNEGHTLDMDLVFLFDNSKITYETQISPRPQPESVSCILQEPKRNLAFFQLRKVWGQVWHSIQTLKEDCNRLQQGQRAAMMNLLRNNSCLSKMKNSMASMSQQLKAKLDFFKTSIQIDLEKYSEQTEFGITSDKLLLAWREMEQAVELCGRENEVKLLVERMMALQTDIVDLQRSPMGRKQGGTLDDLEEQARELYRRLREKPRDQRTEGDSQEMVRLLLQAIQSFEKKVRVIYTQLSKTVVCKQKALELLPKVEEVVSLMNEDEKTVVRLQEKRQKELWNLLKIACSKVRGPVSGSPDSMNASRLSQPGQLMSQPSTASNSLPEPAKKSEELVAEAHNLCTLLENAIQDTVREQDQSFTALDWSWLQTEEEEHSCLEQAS
Put plainly: IKKβ enzyme assay (Z'-LYTE, Invitrogen). It is filed as biochemical. How it is done:
The ability of compounds to inhibit IKK-β kinase activity was measured in an assay performed by Invitrogen (Paisley, UK). The Z′-LYTE™ biochemical assay employs a fluorescence-based, coupled-enzyme format and is based on the differential sensitivity of phosphorylated and non-phosphorylated peptides to proteolytic cleavage. The peptide substrate is labelled with two fluorophores—one at each end—that make up a FRET pair. In the primary reaction, the kinase transfers the gamma-phosphate of ATP to a single serine or threonine residue in a synthetic FRET-peptide. In the secondary reaction, a site-specific protease recognizes and cleaves non-phosphorylated FRET-peptides. Phosphorylation of FRET-peptides suppresses cleavage by the Development Reagent. Cleavage disrupts FRET between the donor (i.e. coumarin) and acceptor (i.e. fluorescein) fluorophores on the FRET-peptide, whereas uncleaved, phosphorylated FRET-peptides maintain FRET. A […] method, which calculates the ratio (the Emission Ratio) of donor emission to acceptor emission after excitation of the donor fluorophore at 400 nm, is used to quantitate reaction progress.
The final 10 μL Kinase Reaction consists of 0.9-8.0 ng IKBKB (IKK-β), 2 μM Ser/Thr 05 Peptide and ATP in 50 mM HEPES pH 7.5, 0.01% BRIJ-35, 10 mM MgCl2, 1 mM EGTA. The assay is performed at an ATP concentration at, or close to the Km. After the 60 minute Kinase Reaction incubation at room temperature, 5 μL of a 1:128 dilution of Development Reagent is added. The assay plate is incubated for a further 60 minutes at room temperature and read on a fluorescence plate reader.
Duplicate data points are generated from a ⅓ log dilution series of a stock solution of test compound in DMSO. Nine dilutions steps are made from a top concentration of 10 μM, and a ‘no compound’ blank is included. Data is collected and analysed using XLfit software from IDBS. The dose response curve is curve fitted to model number 205 (sigmoidal dose-response model). From the curve generated, the concentration giving 50% inhibition is determined and reported.

The test system of a further assay is human whole blood. Put plainly: LPS-stimulation of human whole blood, TNF-α release. Format: cell-based. How it is done: Whole blood was taken by venous puncture using heparinised vacutainers (Becton Dickinson) and diluted in an equal volume of RPMI1640 tissue culture media (Sigma). 100 μl was plated in V-bottomed 96 well tissue culture treated plates. 2 hours after the addition of the inhibitor in 100 μl of RPMI1640 media, the blood was stimulated with LPS (E coli strain 005:B5, Sigma) at a final concentration of 100 ng/ml and incubated at 37° C. in 5% CO2 for 6 hours. TNF-α levels were measured from cell-free supernatants by sandwich ELISA (R&D Systems #QTA00B). Human heparinised blood (17-IU/ml) was diluted with an equal volume of RPMI-1640 and then sub-aliquoted into 96 well microtitre wells (100 µl/well). Inhibitors of IKKβ that had been serially diluted in RPMI-1640 were added to the wells (100 µl/well) to give a range of final concentrations (5-10000 nM). After incubation for 2 hours at 37° C., TNF[…] production was stimulated for 6 hours at 37° C. by the addition of 10 µl of LPS (E Coli 055:B5) to give a final concentration of 100 ng/ml. Plates were then centrifuged for 3 minutes at 800 g and TNF[…] present in the supernatant then measured, using a QuantiGlo Chemiluminescent ELISA (R&D Systems). The human whole blood assay measures the ability of the compounds to inhibit the LPS stimulated production of TNF alpha in human blood cells mediated by IKKβ in a physiologically relevant setting.

Another assay deals with THP-1 cells. The experiment in a line: LPS-stimulation of THP-1 cells, TNF-α release. Format: cell-based. Conditions: Homo sapiens, LPS 1 μg/ml, 6 hours, IC50 range, read-out: Inhibitor activity versus THP-1 TNFα release. How it is done: THP-1 cells were plated in 100 μl at a density of 4×10^4 cells/well in V-bottomed 96 well tissue culture treated plates and incubated at 37° C. in 5% CO2 for 16 hours. 2 hours after the addition of the inhibitor in 100 μl of tissue culture media, the cells were stimulated with LPS (E coli strain 005:B5, Sigma) at a final concentration of 1 μg/ml and incubated at 37° C. in 5% CO2 for 6 hours. TNF-α levels were measured from cell-free supernatants by sandwich ELISA (R&D Systems #QTA00B).

[1] abbreviates: ATP at or close to Km, IC50 range, read-out: Inhibitor activity versus IKKβ.
Setting [2] is: read-out: Enzyme IC50 (nM) vs IKKβ.
Setting [3] is: LPS stimulated TNF alpha production, read-out: IC50 in Human whole blood.
The mark [4] stands for this setting: LPS 100 ng/ml, 6 hours, IC50 range, read-out: Inhibitor activity versus human whole blood TNFα release.

On to `CC(C)(NCc1ccc2cc(-c3cc(C(N)=O)c(NC(N)=O)s3)ccc2c1)C(=O)O` [Example 11, N-({6-[4-carbamoyl-5-(carbamoylamino)-2-thienyl]-2-naphthyl}methyl)-2-methylalanine], for which, at IKBKB (IKK-β) (setting [1]), the IC50 was below 500 nM.

`NC(=O)Nc1sc(-c2ccccc2)cc1C(N)=O` [Compound I, reference compound]: the figures for the IC50 on IKBKB (IKK-β) (setting [2]) and in the assay with human whole blood (setting [3]) were 5 nM and 489 nM, respectively.

Regarding `CC(C)(NCc1ccc2cc(-c3cc(C(N)=O)c(NC(N)=O)s3)ccc2c1)C(=O)OC1CCCC1` [Example 7, Cyclopentyl N-({6-[4-carbamoyl-5-(carbamoylamino)-2-thienyl]-2-naphthyl}methyl)-2-methylalaninate], the IC50 on IKBKB (IKK-β) (setting [1]) was above 1000 nM; with THP-1 cells it was below 500 nM; in the assay with human whole blood (setting [4]), above 1000 nM.

Turning to `CC(C)(NCc1ccc(-c2cc(C(N)=O)c(NC(N)=O)s2)cc1)C(=O)OC1CCCC1` [Example 5, Cyclopentyl N-{4-[4-carbamoyl-5-(carbamoylamino)-2-thienyl]benzyl}-2-methylalaninate], the IC50 is below 500 nM at IKBKB (IKK-β) (setting [1]), above 1000 nM in the assay with THP-1 cells and 500 to 1000 nM in the assay on human whole blood (setting [4]).

For the molecule `CC(C)(NC(=O)c1cccc(-c2cc(C(N)=O)c(NC(N)=O)s2)c1)C(=O)O` [Example 9, N-{3-[4-Carbamoyl-5-(carbamoylamino)-2-thienyl]benzoyl}-2-methylalanine], the IC50 at IKBKB (IKK-β) (setting [1]) is below 500 nM.

Regarding `CC(C)(NC(=O)c1cccc(-c2cc(C(N)=O)c(NC(N)=O)s2)c1)C(=O)OC1CCCC1` [Example 3, Cyclopentyl N-{3-[4-carbamoyl-5-(carbamoylamino)-2-thienyl]benzoyl}-2-methylalaninate], the figures for the IC50 at IKBKB (IKK-β) (setting [1]), with THP-1 cells and in the assay with human whole blood (setting [4]) were below 500 nM, above 1000 nM and above 1000 nM, respectively.

As for `CC(C)(NCc1cccc(-c2cc(C(N)=O)c(NC(N)=O)s2)c1)C(=O)OC1CCCC1` [Example 1, Cyclopentyl N-{3-[4-carbamoyl-5-(carbamoylamino)-2-thienyl]benzyl}-2-methylalaninate], the IC50 was below 500 nM at IKBKB (IKK-β) (setting [1]); 132 nM at IKBKB (IKK-β) (setting [2]); below 500 nM with THP-1 cells; below 500 nM in the assay on human whole blood (setting [4]); 140 nM in the assay with human whole blood (setting [3]).

Regarding `CC(C)(NCCc1cccc(-c2cc(C(N)=O)c(NC(N)=O)s2)c1)C(=O)OC1CCCC1` [Example 6, Cyclopentyl N-(2-{3-[4-carbamoyl-5-(carbamoylamino)-2-thienyl]phenyl}ethyl)-2-methylalaninate], the IC50 was 500 to 1000 nM on IKBKB (IKK-β) (setting [1]), 500 to 1000 nM with THP-1 cells and below 500 nM in the assay with human whole blood (setting [4]).

In the case of `CC(C)(NCc1cccc(-c2cc(C(N)=O)c(NC(N)=O)s2)c1)C(=O)O` [Example 8, N-{3-[4-Carbamoyl-5-(carbamoylamino)-2-thienyl]benzyl}-2-methylalanine], on IKBKB (IKK-β) (setting [1]), the IC50 is below 500 nM.

For `CCC(CC)(NCc1cccc(-c2cc(C(N)=O)c(NC(N)=O)s2)c1)C(=O)OC1CCCC1` [Example 4, Cyclopentyl 2-({3-[4-carbamoyl-5-(carbamoylamino)-2-thienyl]benzyl}amino)-2-ethylbutanoate], the IC50 was above 1000 nM at IKBKB (IKK-β) (setting [1]), below 500 nM with THP-1 cells and above 1000 nM in the assay on human whole blood (setting [4]).

As for `CC(C)(C)OC(=O)C(C)(C)NCc1cccc(-c2cc(C(N)=O)c(NC(N)=O)s2)c1` [Example 2, tert-Butyl N-{3-[4-carbamoyl-5-(carbamoylamino)-2-thienyl]benzyl}-2-methylalaninate], the figures for the IC50 on IKBKB (IKK-β) (setting [1]), in the assay with THP-1 cells and in the assay on human whole blood (setting [4]) were below 500 nM, below 500 nM and above 1000 nM, respectively.

Take `CC(C)(NCCc1cccc(-c2cc(C(N)=O)c(NC(N)=O)s2)c1)C(=O)O` [Example 10, N-(2-{3-[4-carbamoyl-5-(carbamoylamino)-2-thienyl]phenyl}ethyl)-2-methylalanine]: the IC50 at IKBKB (IKK-β) (setting [1]) was below 500 nM.
